The nature of the data set: physchem. Conditions: saturated aqueous solution of the boron compound.

Excerpt: The pKa of the boron compound utilized herein may be determined as follows. […] Using an auto titrator, titrate the solution according to standard methods. The pKa of the boron compound is the pH at which the inflection point occurs in the resulting titration curve.

One may read the pKa as the negative logarithm of the acid dissociation constant. Low readings indicate a group that gives up its proton readily, high ones a group that holds its proton tightly. Take `OB(O)O` [boric acid]: the pKa was about 9.2.

Values taken from patent US6632449B2, “Compositions and kits comprising a defined boron compound and methods of their preparation” (The Procter & Gamble Co., priority 2001, dated 2003).
